From the OligoGym collection
Several values for one entry are separate records, joined by “and”; a condition that tells them apart may be missing. Identical values can stand only once. HELM strings list units from the 5' end as sugar, base in round brackets, then linkage (d deoxyribose, r ribose, m 2'-O-methyl, p phosphodiester). Strings are as the collection lists them, not checked against the first reports. ss, as = sense and antisense strand; [fl2r] = 2'-fluoro

Conditions: siRNA
Also: test system not given here.

Substance	target mRNA knockdown
RNA1{r(U)p.m(U)p.r(A)p.m(C)p.r(A)p.r(A)p.r(A)p.r(G)p.r(G)p.m(A)p.r(U)p.r(C)p.r(U)p.r(C)p.r(C)p.r(U)p.r(C)p.r(C)p.r(C)p.r(T)p.r(T)}|RNA2{r(G)p.r(G)p.r(G)p.r(A)p.r(G)p.r(G)p.r(A)p.r(G)p.m(A)p.r(U)p.r(C)p.r(C)p.r(U)p.r(U)p.m(U)p.r(G)p.m(U)p.r(A)p.r(A)p.r(T)p.r(T)}$$$RNA1{StrandType:ss}|RNA2{StrandType:as}$	78%
RNA1{r(U)p.m(U)p.r(A)p.r(A)p.r(A)p.r(G)p.r(G)p.r(G)p.r(C)p.r(G)p.r(A)p.r(G)p.r(A)p.r(A)p.r(G)p.r(A)p.r(C)p.r(C)p.r(G)p.r(T)p.r(T)}|RNA2{r(C)p.r(G)p.r(G)p.r(U)p.r(C)p.r(U)p.r(U)p.r(C)p.r(U)p.r(C)p.r(G)p.r(C)p.r(C)p.r(C)p.r(U)p.r(U)p.m(U)p.r(A)p.r(A)p.r(T)p.r(T)}$$$RNA1{StrandType:ss}|RNA2{StrandType:as}$	87%
RNA1{r(U)p.m(U)p.r(A)p.r(A)p.r(G)p.r(G)p.r(A)p.r(G)p.r(A)p.r(A)p.r(G)p.r(C)p.m(U)p.m(G)p.r(A)p.r(C)p.r(G)p.r(G)p.r(C)p.r(T)p.r(T)}|RNA2{r(G)p.r(C)p.r(C)p.r(G)p.r(U)p.m(C)p.r(A)p.r(G)p.r(C)p.r(U)p.r(U)p.r(C)p.r(U)p.r(C)p.r(C)p.r(U)p.m(U)p.r(A)p.r(A)p.r(T)p.r(T)}$$$RNA1{StrandType:ss}|RNA2{StrandType:as}$	82%
RNA1{r(U)p.m(U)p.r(A)p.r(A)p.r(G)p.r(G)p.r(A)p.r(G)p.r(A)p.r(A)p.r(G)p.r(C)p.m(U)p.r(G)p.r(A)p.r(C)p.r(G)p.r(G)p.r(C)p.r(T)p.r(T)}|RNA2{r(G)p.r(C)p.r(C)p.r(G)p.r(U)p.m(C)p.r(A)p.r(G)p.r(C)p.r(U)p.r(U)p.r(C)p.r(U)p.r(C)p.r(C)p.r(U)p.m(U)p.r(A)p.r(A)p.r(T)p.r(T)}$$$RNA1{StrandType:ss}|RNA2{StrandType:as}$	67%
RNA1{r(U)p.m(U)p.r(A)p.r(A)p.r(G)p.r(G)p.r(A)p.r(G)p.r(A)p.r(A)p.r(G)p.r(C)p.r(U)p.r(G)p.r(A)p.r(C)p.r(G)p.r(G)p.r(C)p.r(T)p.r(T)}|RNA2{r(G)p.r(C)p.r(C)p.r(G)p.r(U)p.m(C)p.r(A)p.r(G)p.r(C)p.r(U)p.r(U)p.r(C)p.r(U)p.r(C)p.r(C)p.r(U)p.m(U)p.r(A)p.r(A)p.r(T)p.r(T)}$$$RNA1{StrandType:ss}|RNA2{StrandType:as}$	83%
RNA1{r(U)p.m(U)p.r(A)p.r(A)p.r(G)p.r(G)p.r(A)p.r(G)p.r(A)p.r(A)p.r(G)p.r(C)p.r(U)p.r(G)p.r(A)p.r(C)p.r(G)p.r(G)p.r(C)p.r(T)p.r(T)}|RNA2{r(G)p.r(C)p.r(C)p.r(G)p.r(U)p.r(C)p.r(A)p.r(G)p.r(C)p.r(U)p.r(U)p.r(C)p.r(U)p.r(C)p.r(C)p.r(U)p.m(U)p.r(A)p.r(A)p.r(T)p.r(T)}$$$RNA1{StrandType:ss}|RNA2{StrandType:as}$	69%
RNA1{r(U)p.m(U)p.r(A)p.r(C)p.r(A)p.r(A)p.r(A)p.r(G)p.r(G)p.r(A)p.r(U)p.r(C)p.r(U)p.r(C)p.r(C)p.r(U)p.r(C)p.r(C)p.r(C)p.r(T)p.r(T)}|RNA2{r(G)p.r(G)p.r(G)p.r(A)p.r(G)p.r(G)p.r(A)p.r(G)p.r(A)p.r(U)p.r(C)p.r(C)p.r(U)p.r(U)p.r(U)p.r(G)p.m(U)p.r(A)p.r(A)p.r(T)p.r(T)}$$$RNA1{StrandType:ss}|RNA2{StrandType:as}$	69%
RNA1{r(U)p.m(U)p.r(G)p.r(G)p.r(G)p.r(G)p.r(A)p.r(A)p.r(G)p.r(C)p.r(G)p.r(G)p.r(C)p.r(C)p.r(G)p.r(G)p.r(C)p.r(G)p.r(G)p.r(T)p.r(T)}|RNA2{r(C)p.r(C)p.r(G)p.r(C)p.r(C)p.r(G)p.r(G)p.r(C)p.r(C)p.r(G)p.r(C)p.r(U)p.r(U)p.r(C)p.r(C)p.r(C)p.m(C)p.r(A)p.r(A)p.r(T)p.r(T)}$$$RNA1{StrandType:ss}|RNA2{StrandType:as}$	82%
RNA1{r(U)p.r(A)p.r(A)p.r(G)p.r(A)p.r(U)p.r(G)p.r(U)p.r(U)p.r(C)p.r(A)p.r(U)p.r(C)p.r(G)p.r(A)p.r(G)p.r(U)p.r(C)p.r(C)p.d(T)p.d(T)}|RNA2{r(G)p.r(G)p.r(A)p.r(C)p.r(U)p.r(C)p.r(G)p.r(A)p.r(U)p.r(G)p.r(A)p.r(A)p.r(C)p.r(A)p.r(U)p.r(C)p.r(U)p.r(U)p.r(A)p.d(T)p.d(T)}$$$RNA1{StrandType:ss}|RNA2{StrandType:as}$	0%
RNA1{r(U)p.r(A)p.r(C)p.r(C)p.r(G)p.r(A)p.r(G)p.r(A)p.r(A)p.r(U)p.r(G)p.m(A)p.r(G)p.m(C)p.r(C)p.m(U)p.r(G)p.m(A)p.r(U)p.r(T)p.r(T)}|RNA2{m(A)p.r(U)p.m(C)p.r(A)p.m(G)p.r(G)p.m(C)p.r(U)p.m(C)p.r(A)p.m(U)p.r(U)p.m(C)p.r(U)p.m(C)p.r(G)p.m(G)p.r(U)p.m(A)p.r(T)p.r(T)}$$$RNA1{StrandType:ss}|RNA2{StrandType:as}$	23%
RNA1{r(U)p.r(C)p.[fl2r](C)p.r(A)p.r(A)p.r(G)p.r(C)p.r(U)p.r(U)p.r(C)p.r(C)p.r(U)p.r(C)p.r(G)p.r(U)p.[fl2r](U)p.[fl2r](G)p.r(G)p.r(U)p.r(T)p.r(T)}|RNA2{r(A)p.r(C)p.[fl2r](C)p.[fl2r](A)p.r(A)p.r(C)p.r(G)p.r(A)p.r(G)p.r(G)p.r(A)p.r(A)p.r(G)p.r(C)p.r(U)p.[fl2r](U)p.r(G)p.r(G)p.r(A)p.r(T)p.r(T)}$$$RNA1{StrandType:ss}|RNA2{StrandType:as}$	65%
RNA1{r(U)p.r(C)p.m(U)p.r(A)p.m(C)p.r(A)p.r(C)p.r(C)p.r(G)p.m(C)p.r(G)p.r(C)p.m(C)p.r(C)p.r(C)p.r(C)p.r(C)p.r(U)p.r(C)p.r(T)p.r(T)}|RNA2{r(G)p.r(A)p.r(G)p.r(G)p.r(G)p.r(G)p.r(G)p.r(G)p.r(C)p.r(G)p.r(C)p.r(G)p.r(G)p.m(U)p.r(G)p.m(U)p.r(A)p.r(G)p.r(A)p.r(T)p.r(T)}$$$RNA1{StrandType:ss}|RNA2{StrandType:as}$	73%
RNA1{r(U)p.r(C)p.m(U)p.r(A)p.r(C)p.r(A)p.r(C)p.r(C)p.r(G)p.r(C)p.r(G)p.r(C)p.r(C)p.r(C)p.r(C)p.r(C)p.r(C)p.r(U)p.r(C)p.r(T)p.r(T)}|RNA2{r(G)p.r(A)p.r(G)p.r(G)p.r(G)p.r(G)p.r(G)p.r(G)p.r(C)p.r(G)p.r(C)p.r(G)p.r(G)p.r(U)p.r(G)p.m(U)p.r(A)p.r(G)p.r(A)p.r(T)p.r(T)}$$$RNA1{StrandType:ss}|RNA2{StrandType:as}$	79%
RNA1{r(U)p.r(C)p.r(C)p.m(U)p.r(A)p.r(G)p.r(C)p.m(U)p.r(G)p.r(U)p.r(C)p.r(U)p.m(U)p.r(G)p.r(U)p.r(C)p.r(C)p.r(C)p.r(U)p.r(T)p.r(T)}|RNA2{r(A)p.r(G)p.r(G)p.r(G)p.r(A)p.m(C)p.r(A)p.r(A)p.r(G)p.r(A)p.m(C)p.r(A)p.r(G)p.r(C)p.m(U)p.r(A)p.r(G)p.r(G)p.r(A)p.r(T)p.r(T)}$$$RNA1{StrandType:ss}|RNA2{StrandType:as}$	68%
RNA1{r(U)p.r(C)p.r(C)p.m(U)p.r(A)p.r(G)p.r(C)p.r(U)p.r(G)p.r(U)p.r(C)p.r(U)p.r(U)p.r(G)p.r(U)p.r(C)p.r(C)p.r(C)p.r(U)p.r(T)p.r(T)}|RNA2{r(A)p.r(G)p.r(G)p.r(G)p.r(A)p.r(C)p.r(A)p.r(A)p.r(G)p.r(A)p.r(C)p.r(A)p.r(G)p.r(C)p.m(U)p.r(A)p.r(G)p.r(G)p.r(A)p.r(T)p.r(T)}$$$RNA1{StrandType:ss}|RNA2{StrandType:as}$	71%
RNA1{r(U)p.r(C)p.r(C)p.r(A)p.r(A)p.r(G)p.r(C)p.r(U)p.r(U)p.r(C)p.r(C)p.r(U)p.r(C)p.r(G)p.r(U)p.r(U)p.r(G)p.r(G)p.r(U)p.r(T)p.r(T)}|RNA2{r(A)p.r(C)p.[fl2r](C)p.r(A)p.r(A)p.r(C)p.r(G)p.r(A)p.r(G)p.r(G)p.r(A)p.r(A)p.r(G)p.r(C)p.r(U)p.[fl2r](U)p.r(G)p.r(G)p.r(A)p.r(T)p.r(T)}$$$RNA1{StrandType:ss}|RNA2{StrandType:as}$	71%
RNA1{r(U)p.r(C)p.r(C)p.r(C)p.r(U)p.r(U)p.r(C)p.m(C)p.r(A)p.r(C)p.r(C)p.r(G)p.r(C)p.m(C)p.r(A)p.m(U)p.r(A)p.r(U)p.r(U)p.r(T)p.r(T)}|RNA2{r(A)p.r(A)p.m(U)p.r(A)p.m(U)p.r(G)p.r(G)p.r(C)p.r(G)p.r(G)p.m(U)p.r(G)p.r(G)p.r(A)p.r(A)p.r(G)p.r(G)p.r(G)p.r(A)p.r(T)p.r(T)}$$$RNA1{StrandType:ss}|RNA2{StrandType:as}$	47%
RNA1{r(U)p.r(C)p.r(C)p.r(C)p.r(U)p.r(U)p.r(C)p.r(C)p.r(A)p.r(C)p.r(C)p.r(G)p.r(C)p.r(C)p.r(A)p.m(U)p.r(A)p.r(U)p.r(U)p.r(T)p.r(T)}|RNA2{r(A)p.r(A)p.m(U)p.r(A)p.r(U)p.r(G)p.r(G)p.r(C)p.r(G)p.r(G)p.r(U)p.r(G)p.r(G)p.r(A)p.r(A)p.r(G)p.r(G)p.r(G)p.r(A)p.r(T)p.r(T)}$$$RNA1{StrandType:ss}|RNA2{StrandType:as}$	49%
RNA1{r(U)p.r(C)p.r(C)p.r(G)p.r(G)p.r(C)p.[fl2r](U)p.r(A)p.r(A)p.r(C)p.r(U)p.r(C)p.[fl2r](U)p.r(G)p.r(A)p.r(G)p.r(G)p.r(A)p.r(C)p.r(T)p.r(T)}|RNA2{r(G)p.r(U)p.r(C)p.r(C)p.r(U)p.[fl2r](C)p.r(A)p.r(G)p.r(A)p.r(G)p.r(U)p.r(U)p.r(A)p.r(G)p.r(C)p.r(C)p.[fl2r](G)p.r(G)p.r(A)p.r(T)p.r(T)}$$$RNA1{StrandType:ss}|RNA2{StrandType:as}$	85%
RNA1{r(U)p.r(C)p.r(C)p.r(G)p.r(G)p.r(C)p.[fl2r](U)p.r(A)p.r(A)p.r(C)p.r(U)p.r(C)p.r(U)p.r(G)p.r(A)p.r(G)p.r(G)p.r(A)p.r(C)p.r(T)p.r(T)}|RNA2{r(G)p.r(U)p.r(C)p.r(C)p.r(U)p.r(C)p.r(A)p.r(G)p.r(A)p.r(G)p.r(U)p.[fl2r](U)p.r(A)p.r(G)p.r(C)p.r(C)p.r(G)p.r(G)p.r(A)p.r(T)p.r(T)}$$$RNA1{StrandType:ss}|RNA2{StrandType:as}$	82%
RNA1{r(U)p.r(C)p.r(C)p.r(U)p.r(A)p.r(C)p.r(A)p.r(G)p.r(C)p.r(A)p.r(C)p.r(A)p.r(A)p.r(C)p.r(A)p.r(A)p.r(A)p.r(U)p.r(G)p.d(U)p.d(G)}|RNA2{r(C)p.r(A)p.r(U)p.r(U)p.r(U)p.r(G)p.r(U)p.r(U)p.r(G)p.r(U)p.r(G)p.r(C)p.r(U)p.r(G)p.r(U)p.r(A)p.r(G)p.r(G)p.r(A)p.d(A)p.d(G)}$$$RNA1{StrandType:ss}|RNA2{StrandType:as}$	25% and 0%
